Experimental data from PubChem BioAssay (NCI).
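Dose response: 5 concentrations. Exposure: 48 h. Format: 96-well plates. Endpoint: linear interpolation; highest concentration if not reached. GI50: concentration for 50% inhibition of growth. TGI denotes the concentration required for complete inhibition of growth.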

Assays:
Test in all cases: growth of human tumour cells (NCI), 48 h
MDA-MB-468 breast = tested on: MDA-MB-468 breast
HCC-2998 colon = tested on: HCC-2998 colon
SR leukemia = tested on: SR leukemia
OVCAR-8 ovarian = tested on: OVCAR-8 ovarian
T-47D breast = tested on: T-47D breast
HOP-62 NSCLC = tested on: HOP-62 NSCLC
HL-60(TB) leukemia = tested on: HL-60(TB) leukemia
RXF 393 renal = tested on: RXF 393 renal
MALME-3M melanoma = tested on: MALME-3M melanoma
SNB-75 CNS = tested on: SNB-75 CNS
HCT-116 colon = tested on: HCT-116 colon
SF-539 CNS = tested on: SF-539 CNS
MDA-MB-435 = tested on: MDA-MB-435
SK-MEL-2 melanoma = tested on: SK-MEL-2 melanoma
IGROV1 ovarian = tested on: IGROV1 ovarian
A498 renal = tested on: A498 renal
HT29 colon = tested on: HT29 colon
OVCAR-4 ovarian = tested on: OVCAR-4 ovarian
SNB-19 CNS = tested on: SNB-19 CNS
OVCAR-3 ovarian = tested on: OVCAR-3 ovarian
UO-31 renal = tested on: UO-31 renal
OVCAR-5 ovarian = tested on: OVCAR-5 ovarian
TK-10 renal = tested on: TK-10 renal
EKVX NSCLC = tested on: EKVX NSCLC
NCI-H522 lung = tested on: NCI-H522 lung
KM12 colon = tested on: KM12 colon
RPMI-8226 leukemia = tested on: RPMI-8226 leukemia
SF-295 CNS = tested on: SF-295 CNS
SK-MEL-5 melanoma = tested on: SK-MEL-5 melanoma
MDA-MB-231 breast = tested on: MDA-MB-231 breast
M14 melanoma = tested on: M14 melanoma
PC-3 prostate = tested on: PC-3 prostate
SN12C renal = tested on: SN12C renal
LOX IMVI melanoma = tested on: LOX IMVI melanoma
DU-145 prostate = tested on: DU-145 prostate
SK-MEL-28 melanoma = tested on: SK-MEL-28 melanoma
NCI-H460 lung = tested on: NCI-H460 lung
UACC-62 melanoma = tested on: UACC-62 melanoma
NCI-H23 lung = tested on: NCI-H23 lung
CCRF-CEM leukemia = tested on: CCRF-CEM leukemia
SF-268 CNS = tested on: SF-268 CNS
MCF7 breast = tested on: MCF7 breast
NCI-H226 lung = tested on: NCI-H226 lung
SW-620 colon = tested on: SW-620 colon
ACHN renal = tested on: ACHN renal
HS 578T breast = tested on: HS 578T breast
HOP-92 NSCLC = tested on: HOP-92 NSCLC
UACC-257 melanoma = tested on: UACC-257 melanoma
CAKI-1 renal = tested on: CAKI-1 renal
SK-OV-3 ovarian = tested on: SK-OV-3 ovarian
A549 NSCLC = tested on: A549 NSCLC
MOLT-4 leukemia = tested on: MOLT-4 leukemia
COLO 205 colon = tested on: COLO 205 colon
BT-549 breast = tested on: BT-549 breast
NCI/ADR-RES ovarian = tested on: NCI/ADR-RES ovarian
786-0 renal = tested on: 786-0 renal
U251 CNS = tested on: U251 CNS
HCT-15 colon = tested on: HCT-15 colon
K-562 leukemia = tested on: K-562 leukemia

Structure (SMILES): COc1ccccc1/C=C/c1cccc(NC(=S)NCCCCN(C)C)c1
- GI50 (MDA-MB-468 breast): 10.1 µM
- TGI (MDA-MB-468 breast): 22.6 µM
- GI50 (HCC-2998 colon): 13.2 µM
- TGI (HCC-2998 colon): 27.2 µM
- GI50 (SR leukemia): 11.7 µM
- TGI (SR leukemia): 35.4 µM
- GI50 (OVCAR-8 ovarian): 17 µM
- TGI (OVCAR-8 ovarian): 34.5 µM
- GI50 (T-47D breast): 11.6 µM
- TGI (T-47D breast): 27.3 µM
- GI50 (HOP-62 NSCLC): 16.2 µM
- TGI (HOP-62 NSCLC): 32.3 µM
- GI50 (HL-60(TB) leukemia): 12.4 µM
- TGI (HL-60(TB) leukemia): 29.7 µM
- GI50 (RXF 393 renal): 11.8 µM
- TGI (RXF 393 renal): 26.2 µM
- GI50 (MALME-3M melanoma): 15.8 µM
- TGI (MALME-3M melanoma): 29.8 µM
- GI50 (SNB-75 CNS): 12.1 µM
- TGI (SNB-75 CNS): 27.2 µM
- GI50 (HCT-116 colon): 11.8 µM
- TGI (HCT-116 colon): 28.6 µM
- GI50 (SF-539 CNS): 13.4 µM
- TGI (SF-539 CNS): 26.2 µM
- GI50 (MDA-MB-435): 3.82 µM
- TGI (MDA-MB-435): 15.7 µM
- GI50 (SK-MEL-2 melanoma): 16.1 µM
- TGI (SK-MEL-2 melanoma): 31.3 µM
- GI50 (IGROV1 ovarian): 17 µM
- TGI (IGROV1 ovarian): 32.3 µM
- GI50 (A498 renal): 16.5 µM
- TGI (A498 renal): 30.3 µM
- GI50 (HT29 colon): 5.8 µM
- TGI (HT29 colon): 20.6 µM
- GI50 (OVCAR-4 ovarian): 14.9 µM
- TGI (OVCAR-4 ovarian): 29.6 µM
- GI50 (SNB-19 CNS): 17.5 µM
- TGI (SNB-19 CNS): 34.7 µM
- GI50 (OVCAR-3 ovarian): 10.7 µM
- TGI (OVCAR-3 ovarian): 26 µM
- GI50 (UO-31 renal): 13.7 µM
- TGI (UO-31 renal): 27.7 µM
- GI50 (OVCAR-5 ovarian): 15.3 µM
- TGI (OVCAR-5 ovarian): 29 µM
- GI50 (TK-10 renal): 17.3 µM
- TGI (TK-10 renal): 32.3 µM
- GI50 (EKVX NSCLC): 14.9 µM
- TGI (EKVX NSCLC): 31.3 µM
- GI50 (NCI-H522 lung): 15.2 µM
- TGI (NCI-H522 lung): 31.3 µM
- GI50 (KM12 colon): 16.1 µM
- TGI (KM12 colon): 32.1 µM
- GI50 (RPMI-8226 leukemia): 17.2 µM
- TGI (RPMI-8226 leukemia): 51.8 µM
- GI50 (SF-295 CNS): 12.5 µM
- TGI (SF-295 CNS): 26.1 µM
- GI50 (SK-MEL-5 melanoma): 14 µM
- TGI (SK-MEL-5 melanoma): 26.9 µM
- GI50 (MDA-MB-231 breast): 14.1 µM
- TGI (MDA-MB-231 breast): 27.8 µM
- GI50 (M14 melanoma): 12.1 µM
- TGI (M14 melanoma): 26.5 µM
- GI50 (PC-3 prostate): 14.2 µM
- TGI (PC-3 prostate): 30.5 µM
- GI50 (SN12C renal): 15 µM
- TGI (SN12C renal): 29 µM
- GI50 (LOX IMVI melanoma): 11.7 µM
- TGI (LOX IMVI melanoma): 25 µM
- GI50 (DU-145 prostate): 15.9 µM
- TGI (DU-145 prostate): 32.5 µM
- GI50 (SK-MEL-28 melanoma): 15.9 µM
- TGI (SK-MEL-28 melanoma): 29.5 µM
- GI50 (NCI-H460 lung): 12.5 µM
- TGI (NCI-H460 lung): 27.8 µM
- GI50 (UACC-62 melanoma): 15.5 µM
- TGI (UACC-62 melanoma): 29.3 µM
- GI50 (NCI-H23 lung): 15.2 µM
- TGI (NCI-H23 lung): 30.4 µM
- GI50 (CCRF-CEM leukemia): 12 µM
- TGI (CCRF-CEM leukemia): 29.5 µM
- GI50 (SF-268 CNS): 15.3 µM
- TGI (SF-268 CNS): 34.5 µM
- GI50 (MCF7 breast): 10.4 µM
- TGI (MCF7 breast): 24.2 µM
- GI50 (NCI-H226 lung): 10.2 µM
- TGI (NCI-H226 lung): 27.4 µM
- GI50 (SW-620 colon): 14.5 µM
- TGI (SW-620 colon): 31.7 µM
- GI50 (ACHN renal): 15.7 µM
- TGI (ACHN renal): 29.1 µM
- GI50 (HS 578T breast): 18.3 µM
- TGI (HS 578T breast): 45.2 µM
- GI50 (HOP-92 NSCLC): 10.1 µM
- TGI (HOP-92 NSCLC): 25.9 µM
- GI50 (UACC-257 melanoma): 16.3 µM
- TGI (UACC-257 melanoma): 31.7 µM
- GI50 (CAKI-1 renal): 14.5 µM
- TGI (CAKI-1 renal): 27.8 µM
- GI50 (SK-OV-3 ovarian): 17 µM
- TGI (SK-OV-3 ovarian): 35.1 µM
- GI50 (A549 NSCLC): 16.3 µM
- TGI (A549 NSCLC): 34.4 µM
- GI50 (MOLT-4 leukemia): 13.3 µM
- TGI (MOLT-4 leukemia): 32.2 µM
- GI50 (COLO 205 colon): 13.6 µM
- TGI (COLO 205 colon): 29.9 µM
- GI50 (BT-549 breast): 17.6 µM
- TGI (BT-549 breast): 33.3 µM
- GI50 (NCI/ADR-RES ovarian): 14.9 µM
- TGI (NCI/ADR-RES ovarian): 37.9 µM
- GI50 (786-0 renal): 15.8 µM
- TGI (786-0 renal): 33.4 µM
- GI50 (U251 CNS): 17.6 µM
- TGI (U251 CNS): 33.3 µM
- GI50 (HCT-15 colon): 8.09 µM
- TGI (HCT-15 colon): 21.6 µM
- GI50 (K-562 leukemia): 3.07 µM
- TGI (K-562 leukemia): 13.3 µM
